First: CC(c1nnc2c(=O)[nH]c3cc(C(F)(F)F)c(Br)cc3n12)P(=O)(O)O (configuration not stated)
Second: CCNC(=O)n1nc(Oc2c(Cl)cc(C(F)(F)F)cc2Cl)cc1COC
The melting point of the first is higher: greater than 300 °C for the first, 106 to 108 °C for the second.

Compared with `COC(=O)[C@@H]1CSCN1S(=O)(=O)c1ccc(Cl)c(CBr)c1Cl`, `COC(=O)[C@@H]1Cc2ccccc2N1c1ccc(Cl)nn1` is higher in melting point: 48 to 50 °C for the first, 133 to 134 °C for the second.

Compared with `COc1cc2nc(N3CCN(C(=O)C=Cc4cc(OC)c(OC)c(OC)c4)CC3)nc(N)c2cc1OC`, `COC1=C(OC)C(=O)C2=C(CCC(CCOc3cc(OC)cc(OC)c3)CC2)C1=O` is lower in melting point: 141 to 146 °C for the first, 63 to 65 °C for the second.

First: O=C(O)c1ccc(OCCCO/N=C/c2cn(Cc3ccccc3)c3ccccc23)cc1O
Second: CCOC(=O)C(O)CCc1ccc(OCCc2nc(-c3ccccc3)oc2C)cc1 (configuration not stated)
The melting point of the first is higher: 182 to 183 °C for the first, 67 to 68 °C for the second.

Compared with `COc1ccc(Nc2ccc(CO)cc2)cc1`, `COc1ccc(CSc2nnc(-c3ccc4occ(-c5ccc(OC)cc5)c4c3)o2)cc1` is higher in melting point: 110 °C for the first, 162 to 163 °C for the second.

First: NC(=O)c1ccc(NC(=O)CCc2cnoc2-c2ccccc2)cc1
Second: O=C/C(=C/c1ccccc1)c1ccc(Cl)cc1
The melting point of the first is higher: 250 to 251 °C for the first, 70 to 75 °C for the second.

First: CNC(=O)C(Cc1c[nH]c2ccccc12)NC(=O)Nc1n[nH]c(=S)s1 (configuration not stated)
Second: CNC(=O)C(NC(=O)c1cn(C)nc1C(F)(F)F)C(CO)c1ccccc1 (configuration not stated)
The melting point of the first is higher: 205 to 210 °C for the first, 194 °C for the second.

Compared with `CCC(Oc1cccc(C)c1)C(=O)OC1CC(O)C=C2C=CC(C)C(CCC3CC(O)CC(=O)O3)C21` (mixture of isomers), `CCOCC(COCC)Oc1ccc(/C=C/C(=O)O)c(Oc2ncc(C(F)(F)F)cc2Cl)c1` is lower in melting point: 147 to 149 °C for the first, 62 to 63 °C for the second.

Compared with `CCOC(=O)CNC(=O)[C@H](Cc1ccc(O)cc1)NC(=O)[C@H](CO)NC(=O)[C@H](Cc1c[nH]c2ccccc12)NC(=O)[C@H](Cc1c[nH]cn1)NC(=O)[C@@H]1CCC(=O)N1`, `O=C(CC(Cc1cccc2ccccc12)C(=O)N[C@@H](Cc1c[nH]cn1)C(=O)N[C@H](CO)Cc1ccccc1)NCCc1ccccc1` (some centres not stated) is lower in melting point: 218 to 220 °C for the first, 106 to 109 °C for the second.

First: O=C1C=C(NC(=O)C(=O)c2cn(Cc3ccc(Cl)cc3)c3cccc(NC(=O)c4ccc(Cl)cc4)c23)CO1
Second: CN(Cc1ccc(NC(=O)C2=Cc3cc(-c4ccc(F)cc4)ccc3S(=O)(=O)CC2)cc1)C1CCOCC1
The melting point of the first is higher: greater than 300 °C for the first, 219 to 221 °C for the second.

First: CCOC(=O)c1cn(C(C)(C)C)c2nc(NC(=O)c3ccc(C)cc3)sc12
Second: CSCC(C)(C)NC(=O)c1c(I)cccc1Oc1ccc(Cl)cc1C
The melting point of the first is higher: 200 to 201 °C for the first, 128 to 130 °C for the second.

First: O=C(NCc1cc(C(F)(F)F)cc(C(F)(F)F)c1)c1c(-c2ccccc2)c2cccnc2c(=O)n1CCCCO
Second: Cn1c(C(F)(F)F)cc(=O)n(-c2cc(OC(=O)Nc3cccc(C(F)(F)F)c3)c(Cl)cc2F)c1=O
The melting point of the first is higher: 155 to 157 °C for the first, 153 to 155 °C for the second.

Compared with `COc1cc(CBr)c(OC)c(CCc2cc(OC)cc(CBr)c2OC)c1`, `COCc1c(C(=O)OC(C)C)ncc2[nH]c3ccc(CCc4ccc(Cl)cc4)cc3c12` is lower in melting point: 158 to 161 °C for the first, 149 to 151 °C for the second.

Compared with `CCCC(=O)NC[C@@H]1C[C@H]1c1cccn2nc(C)cc12` (relative stereo), `Cc1ccc(C2OC(=O)N(C(=O)NN3CCOCC3)C2C)cc1` (configuration not stated) is higher in melting point: 82 to 84 °C for the first, 124 to 125 °C for the second.

First: Cc1ccc(NCCCNc2ncc(Cc3ccc(C)nc3)c(=O)[nH]2)nc1
Second: N#Cc1ccc(CCCCC2CC(c3cccnc3)=CC(=O)O2)cc1 (configuration not stated)
The melting point of the first is higher: 164 to 166 °C for the first, 110 to 112 °C for the second.

Compared with `COc1ccc(-c2cc(C(F)F)nn2-c2ccc(S(N)(=O)=O)c(F)c2)cc1F`, `Nc1ccc2nc(-c3ccc4c(c3)OCCO4)ncc2c1` is higher in melting point: 167 to 169 °C for the first, 179 to 182 °C for the second.

First: Oc1cn(-c2c(Cl)cc(C(F)(F)F)cc2Cl)nc1C(F)(F)F
Second: S=C(Cl)c1cc(C(Cl)(Cl)Cl)c(Cl)cc1Cl
The melting point of the first is higher: 186 to 188 °C for the first, 79 to 81 °C for the second.

First: CC(C)C[C@H](NC(=O)OCCC1c2ccccc2-c2ccccc21)C(=O)O
Second: CC(=O)N1CC(CCN2CCC(c3ccccc3)CC2)c2ccccc21 (configuration not stated)
The melting point of the first is lower: 42 to 43 °C for the first, 92 to 93 °C for the second.

First: CCC(=O)C1=C(O)CC(c2c(C)c([N+](=O)[O-])c(C)c([N+](=O)[O-])c2C)CC1=O (configuration not stated)
Second: CN(Cc1cccc2c1C(=O)N(C1CCC(=O)NC1=O)C2=O)C(=O)Nc1cccc(Cl)c1 (configuration not stated)
The melting point of the first is higher: 249 °C for the first, 193 to 195 °C for the second.

First: CC(=O)N1CCCC2=C1CC(c1ccccc1)c1cc(Cl)ccc12 (configuration not stated)
Second: COc1ccc(C(=O)n2c3c(c4ccccc42)CC(C(=O)O)CC3)cc1 (configuration not stated)
The melting point of the first is lower: 167 to 168 °C for the first, 195 °C for the second.

First: O=c1c2ccccc2nnn1OS(=O)(=O)c1ccccc1
Second: Cc1nc(=O)n(COc2ccccc2)c(C)c1Br
The melting point of the first is higher: 132 to 134 °C for the first, 120 °C for the second.

Compared with `CCOC(=O)C(C)Oc1ccc(-c2nc(-c3ccc(OC(C)C(=O)OCC)cc3O)nc(-c3c(C)cc(C)cc3C)n2)c(O)c1` (configuration not stated), `Cc1cc([C@@H](O)[C@@H](C)N2CCC(O)(c3ccc(C(F)(F)F)cc3)CC2)cc(C)c1O[Si](C(C)C)(C(C)C)C(C)C` (relative stereo) is higher in melting point: 142 to 147 °C for the first, 177 to 178 °C for the second.

Compared with `CC(=NNC(=O)c1cccc([N+](=O)[O-])c1O)c1ccccc1`, `O=C(CNc1ccc(O)cc1)N1CCC(Cc2ccccc2)CC1` is lower in melting point: 163 to 168 °C for the first, 138 to 140 °C for the second.

First: CN1C[C@@H](O)[C@H](Oc2ccccc2)C1 (relative stereo)
Second: CC(C)(C)[PH](=O)Cc1ccccc1 (configuration not stated)
The melting point of the first is higher: 89 to 90 °C for the first, 80 to 82 °C for the second.

Compared with `C=C(CCC)C(=O)c1ccc(OCC(=O)O)c(Cl)c1Cl`, `O=C(O)Cc1c(C(=O)c2ccc(Cl)c(Cl)c2)[nH]c2cc(Cl)ccc12` is higher in melting point: 111 to 113 °C for the first, 206 to 209 °C for the second.

First: CN(C)CCCN(C=O)C1CCC2C3CCC4CCCCC4(C)C3CCC21C (configuration not stated)
Second: CSc1nn(C(=O)NC2CCCCC2)c(=O)n1C
The melting point of the first is lower: 122 °C for the first, 136 °C for the second.

First: COc1ccc(C(C)(O)C(F)(F)F)c(CCO)c1 (configuration not stated)
Second: CC1CC(=O)NN=C1c1ccc(NCCN)c(N)c1 (configuration not stated)
The melting point of the first is lower: 110 to 111 °C for the first, 176 to 177 °C for the second.

First: CC(CNC12CC3CC(CC(C3)C1)C2)N1CCN(c2ccccn2)CC1 (configuration not stated)
Second: COc1ccccc1N1CCN(CCCOc2ccc(-c3nnco3)cc2)CC1
The melting point of the first is lower: 67 to 68 °C for the first, 139 to 140 °C for the second.

First: CC(C)(C)C(=O)OCN1C(=O)CN(CCN2CC(=O)N(COC(=O)C(C)(C)C)C(=O)C2)CC1=O
Second: CCc1nc2c(c(C)c(C)n3nnnc23)n1CCOCCNS(C)(=O)=O
The melting point of the first is lower: 114 to 118 °C for the first, 216 to 218 °C for the second.

Compared with `Cn1nccc1-n1ccnc1S(N)(=O)=O`, `O=c1[nH]ncnc2c1ccc1ncnc12` is higher in melting point: 230 to 233 °C for the first, 266 to 268 °C for the second.

First: c1ccc2[nH]c(CCC(CCCc3[nH]c4ccccc4c3CCN3CCCCC3)CCN3CCCCC3)cc2c1 (configuration not stated)
Second: O=C1N(Cc2ccc(C(F)(F)F)o2)c2cccc(-c3ccoc3)c2C12COc1cc3c(cc12)CCO3 (configuration not stated)
The melting point of the first is lower: 79 to 83 °C for the first, 167 to 169 °C for the second.

First: CN1C(=O)C(C)(C)N=C(c2ccccc2Cl)c2c1ccc(N)c2Cl
Second: Cc1ccccc1Cc1ccc(Cl)nn1
The melting point of the first is higher: 195 to 196 °C for the first, 73.5 °C for the second.

Compared with `O=C1CCC(C(=O)O)(c2ccc(Cl)cc2)CC1`, `OC1C2CCN(CC2)C1C#Cc1ccc(-c2cccnc2)cc1` (configuration not stated) is higher in melting point: 162 to 164 °C for the first, 189 to 190 °C for the second.

`COC(=O)C(=CNC(C)=O)C(C)=O` gave a melting point of 60 to 62 °C.

From a melting point compilation (Tetko et al.; mined from patent text by program, amines drawn as free bases though some values may be those of a salt)
